{
  "source": "BindingDB's records for doi:10.1016/0024-3205(90)90472-4",
  "about": "(University of Arizona, 1990)",
  "target": "T1, Muscarinic acetylcholine receptor M2 (Rattus norvegicus, UniProt P10980)",
  "T1 sequence (P10980 whole entry)": "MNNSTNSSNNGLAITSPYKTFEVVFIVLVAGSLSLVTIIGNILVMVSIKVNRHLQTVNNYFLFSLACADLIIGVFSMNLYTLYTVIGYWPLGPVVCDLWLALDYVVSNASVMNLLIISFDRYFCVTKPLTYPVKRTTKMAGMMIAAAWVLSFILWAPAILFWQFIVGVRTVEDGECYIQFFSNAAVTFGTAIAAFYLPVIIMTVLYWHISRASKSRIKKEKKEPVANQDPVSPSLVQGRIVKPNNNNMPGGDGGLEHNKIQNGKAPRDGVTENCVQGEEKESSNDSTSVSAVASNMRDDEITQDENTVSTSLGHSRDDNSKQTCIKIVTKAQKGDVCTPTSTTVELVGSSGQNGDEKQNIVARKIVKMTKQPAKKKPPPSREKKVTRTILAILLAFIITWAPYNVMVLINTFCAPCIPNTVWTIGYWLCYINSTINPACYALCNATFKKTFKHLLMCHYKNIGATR",
  "data": [
    {"molecule": "C[C@H]1OC(=O)C2C[C@H]3CCCC[C@@H]3[C@@H](/C=C/[C@@H]3CCC[C@H](C)N3C)C21", "note": "(stereo partly specified) [HIMBACINE]", "values": [
      {"measurement": "Ki", "result": 10.2, "unit": "nM"}
    ]}
  ]
}
